Columns and labels:
SNP cells = test: Analysis of cell death (Hoechst 33342, Annexin V-FITC / EthD-III staining); assay type: cell-based, canine; conditions: for Annexin V-FITC / EthD-III staining 4 h after PDT: 8 μg/mL
Experimental: We seeded 5 × 10^4 SNP cells in 35-mm Petri dishes containing 2 mL of cultivation medium. After 24 h of incubation, the dishes were divided into the following […] groups: 1) control group (no treatment); 2) 0 J/cm^2 PDT group (treated with 8 μg/mL G-Ce6 and irradiated with light dose of 0 J/cm^2); 3) 1 J/cm^2 PDT group (treated with 8 μg/mL G-Ce6 and irradiated with light dose of 1 J/cm^2); 4) 5 J/cm^2 PDT group (treated with 8 μg/mL G-Ce6 and irradiated with light dose of 5 J/cm^2); and 5) 15 J/cm^2 PDT group (treated with 8 μg/mL G-Ce6 and irradiated with light dose of 15 J/cm^2).
The cells were incubated with 8 μg/mL G-Ce6 for 24 h. After washing with fresh media, the cells were irradiated with 650-nm laser light (10 mW/cm^2; 1, 5, and 15 J/cm^2) emitted by a semiconductor laser using an optical fiber with a microlens delivery attachment. After 4 h of PDT, the cells were stained using the Promokine Apoptotic/Necrotic/Healthy cell detection kit (PromoKine, Heidelberg, Germany), according to the manufacturer’s instructions. […] Nuclear morphology was examined using an Olympus BX51 (Olympus Co., Tokyo, Japan). […] Nuclear morphology was examined using an Olympus Fluoview FV1000 (Olympus Co., Tokyo, Japan). The cells were analyzed using fluorescence microscopy using FITC and Texas Red filter setting.

SNP tumors [1] = test: Tumor response to PDT in SNP tumor-bearing mice; assay type: in vivo, NOD/ShiJic-scidJcl mice; conditions: 10 mg/kg i.v.; for Tumor regrowth delay vs control group: 677-nm, 100 J/cm^2, p < 0.05
Experimental: (§1) Six-week-old female NOD/ShiJic-scidJcl mice (CLEA Japan, Tokyo, Japan) were maintained in isolators under specific pathogen-free conditions. All SCID mice were housed and handled under clean conditions using a Jic rack (Jic Co., Kanagawa, Japan), sterilized water, cages, beddings, and food (CL-2; CLEA Japan, Tokyo, Japan). Food and water were given ad libitum. SNP cells were inoculated subcutaneously in the shaved lower dorsum of mice at a density of 1 × 10^6 cells in 0.1 mL phosphate buffered salts (Nacalai Tesque Inc., Kyoto, Japan) per mouse using a 26-gauge syringe. The treatments were initiated when the average tumor volume reached about 100 mm^3 in tumor model. The use of animals and the procedures employed in this study were approved by the Animal Research Committee of Tottori University (project number: 15-T-48).
We examined the following two experimental groups: (i) a 3-h-interval PDT group (G-Ce6 administered 3 h before laser irradiation) and (ii) a 5-min-interval PDT group (G-Ce6 administered 5 min before laser irradiation). Tumor-bearing mice were intravenously administered approximately 0.1 mL of G-Ce6 stock solution to achieve a dose of 10 mg/kg body weight; they were irradiated with 677-nm laser light emitted by a diode laser (Osada Electric Co., Ltd., Tokyo, Japan). Light was delivered to the mice through a quartz fiber fitted with a microlens and expanded onto the tumor at a 2–4 mm skin margin. The tumors were exposed at a fluence rate of 250 mW/cm^2, at a light dose of 100 J/cm^2.
The resulting treatment effect was assayed by changes in tumor volume. The tumor size was regularly measured after PDT using a caliper. Tumor volume was calculated using the following formula: tumor volume (V) = (a × b × c) × π/6, where a, b, and c are three orthogonal diameters of the tumor. The experiment was terminated on day 25. All mice were sacrificed via cervical dislocation, and the tumors were harvested.

SNP tumors [2] = test: Intratumoral localization in SNP tumors; assay type: in vivo, NOD/ShiJic-scidJcl mice; conditions: 10 mg/kg i.v.
Experimental: as §1
To determine the intratumoral localization of G-Ce6, tumors were excised either 5 min or 3 h after G-Ce6 (10 mg/kg, i.v.) administration. Samples were immediately mounted in Tissue-Tek® O.C.T. compound (Sakura® Finetek., Tokyo, Japan) and snap-frozen in dry ice with acetone. Cryostat cross sections (10-μm slices) were taken from the center of each tumor. Each section was examined using the all-in-one fluorescence microscope with a filter (excitation, 405 nm; emission, 640 nm).

## CCC1=C(C)c2cc3[nH]c(cc4nc(c(CC(=O)OC)c5[nH]c(cc1n2)c(C)c5C(=O)OC)[C@@H](CCC(=O)OC)[C@@H]4C)c(C)c3C(C)OCCCS[C@@H]1O[C@H](CO)[C@@H](O)[C@H](O)[C@H]1O (stereo partly drawn) [G-Ce6, Methyl (7S,8S)-18-ethyl-5-(2-methoxy-2-oxoethyl)-7-(3-methoxy-3-oxopropyl)-2,8,12,17-tetramethyl-13-(1-(3-(((2S,3R,4S,5S,6R)-3,4,5-trihydroxy-6-(hydroxymethyl)tetrahydro-2H-pyran-2-yl)thio)propoxy)ethyl)-7H,8H-porphyrin-3-carboxylate]
SNP cells; 0 J/cm^2 PDT group, Hoechst 33342
  Morphological changes 4 h after PDT: Signs of cell death were not visible
SNP cells; 0 and 1 J/cm^2 PDT groups
  Annexin V-FITC / EthD-III staining 4 h after PDT: a few cells were positively stained with EthD-III
SNP cells; 5 and 15 J/cm^2 PDT groups
  Annexin V-FITC / EthD-III staining 4 h after PDT: many cells were positively stained with Annexin V or EthD-III
  Hoechst 33342 nuclear staining 4 h after PDT: nuclear condensation
SNP cells; 1 J/cm^2 PDT group
  Morphological changes 4 h after PDT: membrane blebbing
SNP cells; 5 J/cm^2 PDT group
  Morphological changes 4 h after PDT: shrinkage
SNP cells; 15 J/cm^2 PDT group
  Morphological changes 4 h after PDT: cell membranes were not observed and a decrease in the number of SNP cells was evident
SNP tumors [1]; 3-h-interval PDT
  Mean tumor weight on day 25: 210.3 ± 85.0 mg
  Tumor regrowth delay vs control group: significant tumor regrowth delay
SNP tumors [1]; 5-min-interval PDT
  Mean tumor weight on day 25: 34.0 ± 12.7 mg
  Tumor regrowth delay vs control group: significant tumor regrowth delay
SNP tumors [2]; 5 min after administration
  Intratumoral localization of fluorescence: within the tumor blood vessel
SNP tumors [2]; 3 h post administration
  Intratumoral localization of fluorescence: in both tumor interstitial tissue and tumor cells

From PMC6562844, “A Basic Study of Photodynamic Therapy with Glucose-Conjugated Chlorin e6 Using Mammary Carcinoma Xenografts” (Cancers, 2019)
